Data taken from PubChem BioAssay AID1963834 (Molecular Pharmacology Branch, DTP, NCI, 2024).

System: 873145-292-R-J1-PDC complex spheroid viability
Assay: Anticancer human tumor 873145-292-R-J1-PDC patient-derived renal clear cell carcinoma cell line growth inhibition [POLQ]
Conditions: for IC50: curve of first compound; for viability, T/C: stronger effect = lower value
Description: Multicellular complex tumor spheroid response to Polymerase (POL) inhibitors (novobiocin, ART-558, RP6685) in combination with a variety of drugs and investigational agents in selected tumor cell lines
The POL inhibitors (novobiocin, ART-558, and RP6685) were evaluated both individually and in combination with standard of care and investigational anticancer small molecules within a complex spheroid model of solid tumors. . Complex spheroids include a stromal component modeled by human endothelial cells (HUVEC) and fibroblasts modeled by human mesenchymal stem cells (MSCs). The concentration ranges selected for each drug and investigational agent were based upon clinically achievable concentrations if the clinical Cmax of the agent was known.
Compounds. The drugs and investigational agents: novobiocin (NSC847541), ART-558 (NSC835418), RP-6685 (NSC848927), peposertib (NSC802822), ceralasertib (NSC780249), elimusertib (NSC800525), camonsertib (NSC841442), AZD-1390 (NSC803789), olaparib (NSC753686), talazoparib (NSC767125), rucaparib (NSC756644), sotorasib (NSC818433), MRTX-1133 (NSC836407), SN-38 (NSC673596), topotecan (NSC609699), epotoside (NSC141540), doxorubicin (NSC123127), gemcitabine (NSC613327), 5-fluorouracil (NSC19893), paclitaxel (NSC125973), vemurafenib (NSC761431), MSA-2 (NSC828583), SN-011 (NSC837082), adavosertib (NSC754352), prexasertib (NSC758257), carboplatin (NSC241240) and oxaliplatin (NSC266046), were obtained from the National Cancer Institute (NCI) Developmental Therapeutics Program Chemical Repository (21). The FDA-approved anticancer drug set is available from the Developmental Therapeutics Program at https://dtp.cancer.gov/organization/dscb/obtaining/. […] The stock solutions were prepared in dimethyl sulfoxide (DMSO, Sigma-Aldrich, St. Louis, MO, cat. D2650), except for the platinum compounds which were prepared in saline (Quality Biological, Gaithersburg, MD, cat. 114-055-101), at 800-fold the tested concentration and stored at -70 degrees C prior to their use. All drugs and investigational agents were tested over a range starting from a high concentration at or near the clinical Cmax and decreasing in half-log increments. If the clinical Cmax for an agent had not been determined, the highest concentration tested was 10 microM, except for SN-38, which was tested at a high concentration of 1 microM.
Cell Culture. All cells were maintained in an incubator at 37 degrees C and 5% CO2 with 95% humidity. The PDC lines were cultured according to standard operating procedures established by the NCI PDMR (https://pdmr.cancer.gov). Table 3 of the manuscript, lists the cell lines along with the number of the three cell types plated to form the mct-spheroids and media for tumor cell growth. After thawing, all PDC lines, except 997537-175-T-J1-PDC and 415267-285-R-J2-PDC, were cultured in Matrigel-coated flasks prepared with a working solution of 1X Ham's F-12 nutrient mix, without supplementation (Thermo Fisher Scientific, cat. 11765054), 100 U/mL penicillin-streptomycin (Thermo Fisher Scientific, cat. 15140122), and 2.5% Matrigel (Corning Inc., Corning, NY, cat. 354248) for the first three passages. The two PDC lines 997537-175-T-J1-PDC and 415267-285-R-J2-PDC were cultured on uncoated flasks. The 857933-349-R-J2-PDC line was cultured in 6C/Colon 1B media containing advanced DMEM/F-12 (Thermo Fisher Scientific, cat. 12634028), 10 mM HEPES (Thermo Fisher Scientific, cat. 15630080), 1X GlutaMAX supplement (Thermo Fisher Scientific, cat. 35050061), 0.1 mg/mL primocin (InvivoGen, San Diego, CA, cat. ant-pm-2), 10% defined fetal bovine serum, heat inactivated (HyClone Laboratories Inc., Logan, UT, cat. SH30070.03HI), 50% L-WRN conditioned media (ATCC, cat. CRL-3276), 1.25 mM N-Acetyl-L-cysteine (Sigma-Aldrich, cat. A9165), 10 mM nicotinamide (Sigma-Aldrich, cat. N0636), 1X B-27 supplement (Thermo Fisher Scientific, cat. 17504044), 1X N-2 supplement (Thermo Fisher Scientific, cat. […]

[1] = second compound 0.0316 µM, first compound 0.0316 µM
[2] = second compound 0.0316 µM, first compound 0.1 µM
[3] = second compound 0.0316 µM, first compound 0.316 µM
[4] = second compound 0.0316 µM, first compound 1 µM
[5] = second compound 0.0316 µM, first compound 3.16 µM
[6] = second compound 0.0316 µM, first compound 10 µM
[7] = second compound 0.1 µM, first compound 0.0316 µM
[8] = second compound 0.1 µM, first compound 0.1 µM
[9] = second compound 0.1 µM, first compound 0.316 µM
[10] = second compound 0.1 µM, first compound 1 µM
[11] = second compound 0.1 µM, first compound 3.16 µM
[12] = second compound 0.1 µM, first compound 10 µM
[13] = second compound 0.316 µM, first compound 0.0316 µM
[14] = second compound 0.316 µM, first compound 0.1 µM
[15] = second compound 0.316 µM, first compound 0.316 µM
[16] = second compound 0.316 µM, first compound 1 µM
[17] = second compound 0.316 µM, first compound 3.16 µM
[18] = second compound 0.316 µM, first compound 10 µM
[19] = second compound 1 µM, first compound 0.0316 µM
[20] = second compound 1 µM, first compound 0.1 µM
[21] = second compound 1 µM, first compound 0.316 µM
[22] = second compound 1 µM, first compound 1 µM
[23] = second compound 1 µM, first compound 3.16 µM
[24] = second compound 1 µM, first compound 10 µM
[25] = second compound 3.16 µM, first compound 0.0316 µM
[26] = second compound 3.16 µM, first compound 0.1 µM
[27] = second compound 3.16 µM, first compound 0.316 µM
[28] = second compound 3.16 µM, first compound 1 µM
[29] = second compound 3.16 µM, first compound 3.16 µM
[30] = second compound 3.16 µM, first compound 10 µM
[31] = second compound 10 µM, first compound 0.0316 µM
[32] = second compound 10 µM, first compound 0.1 µM
[33] = second compound 10 µM, first compound 0.316 µM
[34] = second compound 10 µM, first compound 1 µM
[35] = second compound 10 µM, first compound 3.16 µM
[36] = second compound 10 µM, first compound 10 µM
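Also: spheroids exposed to compounds for 7 days before viability readout.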
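For viability, T/C in this document: luminescence signal used as surrogate for viable cell content; 100% = DMSO vehicle control viability.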

In the case of C#Cc1c(F)ccc2cc(O)cc(-c3ncc4c(N5CC6CCC(C5)N6)nc(OCC56CCCN5CC(F)C6)nc4c3F)c12 (centres undefined) + COC1C(OC(N)=O)C(O)C(Oc2ccc3c(O)c(NC(=O)c4ccc(O)c(CC=C(C)C)c4)c(=O)oc3c2C)OC1(C)C, the IC50 (second compound 0.0316 µM) is reported as over 10 µM, the IC50 (second compound 0.1 µM) is reported as over 10 µM and the IC50 (second compound 0.316 µM) is reported as over 10 µM. It also gave an IC50 (second compound 1 µM) of over 10 µM, an IC50 (second compound 3.16 µM) of over 10 µM and an IC50 (second compound 10 µM) of over 10 µM. It also gave a viability, T/C [1] of 97.7%, a viability, T/C [2] of 92.7% and a viability, T/C [3] of 95.1%. It also gave a viability, T/C [4] of 83.9%, a viability, T/C [5] of 86.5% and a viability, T/C [6] of 89.6%. The viability, T/C [7] was 102%, the viability, T/C [8] was 97.7% and the viability, T/C [9] was 99%. The viability, T/C [10] was 75.7%, the viability, T/C [11] was 79.6% and the viability, T/C [12] was 82.7%. It also gave a viability, T/C [13] of 98%, a viability, T/C [14] of 85.7% and a viability, T/C [15] of 82.1%. The viability, T/C [16] was 77.8%, the viability, T/C [17] was 86.5% and the viability, T/C [18] was 80.4%. It also gave a viability, T/C [19] of 94.4%, a viability, T/C [20] of 97.1% and a viability, T/C [21] of 99.7%. It also gave a viability, T/C [22] of 76%, a viability, T/C [23] of 82.2% and a viability, T/C [24] of 88.3%. The viability, T/C [25] was 92.5%, the viability, T/C [26] was 92.9% and the viability, T/C [27] was 83.4%. For the same compound, the viability, T/C [28] was 79.3%, the viability, T/C [29] was 86.4% and the viability, T/C [30] was 84%. For the same compound, the viability, T/C [31] was 86.2%, the viability, T/C [32] was 95.5% and the viability, T/C [33] was 82.1%. It also gave a viability, T/C [34] of 86.3%, a viability, T/C [35] of 86.9% and a viability, T/C [36] of 82.1%.

With CC1COCCN1c1cc(C2(S(C)(=N)=O)CC2)nc(-c2ccnc3[nH]ccc23)n1 (centres undefined) + COC1C(OC(N)=O)C(O)C(Oc2ccc3c(O)c(NC(=O)c4ccc(O)c(CC=C(C)C)c4)c(=O)oc3c2C)OC1(C)C the IC50 (second compound 0.0316 µM) was over 10 µM, the IC50 (second compound 0.1 µM) was over 10 µM and the IC50 (second compound 0.316 µM) was over 10 µM. It also gave an IC50 (second compound 1 µM) of over 10 µM, an IC50 (second compound 3.16 µM) of over 10 µM and an IC50 (second compound 10 µM) of over 10 µM. It also gave a viability, T/C [1] of 98.8%, a viability, T/C [2] of 101% and a viability, T/C [3] of 88.6%. The viability, T/C [4] was 88.3%, the viability, T/C [5] was 86.4% and the viability, T/C [6] was 67.8%. It also gave a viability, T/C [7] of 105%, a viability, T/C [8] of 94.7% and a viability, T/C [9] of 90.8%. The viability, T/C [10] was 90.1%, the viability, T/C [11] was 81.3% and the viability, T/C [12] was 58.5%. The viability, T/C [13] was 102%, the viability, T/C [14] was 95.6% and the viability, T/C [15] was 90%. The viability, T/C [16] was 82.7%, the viability, T/C [17] was 80.3% and the viability, T/C [18] was 55.8%. For the same compound, the viability, T/C [19] was 100%, the viability, T/C [20] was 90.2% and the viability, T/C [21] was 96.7%. For the same compound, the viability, T/C [22] was 95.6%, the viability, T/C [23] was 85.6% and the viability, T/C [24] was 61.5%. For the same compound, the viability, T/C [25] was 100%, the viability, T/C [26] was 90.1% and the viability, T/C [27] was 103%. It also gave a viability, T/C [28] of 82.7%, a viability, T/C [29] of 82.6% and a viability, T/C [30] of 62.2%. The viability, T/C [31] was 95.1%, the viability, T/C [32] was 92.9% and the viability, T/C [33] was 95.6%. The viability, T/C [34] was 81.1%, the viability, T/C [35] was 74.8% and the viability, T/C [36] was 64.6%.
